Experimental data: patent US10221139B2, “Inhibitors of histone demethylases” (Gilead Sciences, Inc., priority 2012, dated 2019)

Legend:
[1] = target: T1, GASC1 (KDM4C) (Homo sapiens, UniProt Q9H3R0); assay: Immunofluorescence assay in U2OS cells transfected with pCMVHA JMJD2C (H3K9me3 mark); type: cell-based; conditions: 20 hours
T1 construct: Full length; host or cells: U2OS
T1 sequence (Q9H3R0 1-1056): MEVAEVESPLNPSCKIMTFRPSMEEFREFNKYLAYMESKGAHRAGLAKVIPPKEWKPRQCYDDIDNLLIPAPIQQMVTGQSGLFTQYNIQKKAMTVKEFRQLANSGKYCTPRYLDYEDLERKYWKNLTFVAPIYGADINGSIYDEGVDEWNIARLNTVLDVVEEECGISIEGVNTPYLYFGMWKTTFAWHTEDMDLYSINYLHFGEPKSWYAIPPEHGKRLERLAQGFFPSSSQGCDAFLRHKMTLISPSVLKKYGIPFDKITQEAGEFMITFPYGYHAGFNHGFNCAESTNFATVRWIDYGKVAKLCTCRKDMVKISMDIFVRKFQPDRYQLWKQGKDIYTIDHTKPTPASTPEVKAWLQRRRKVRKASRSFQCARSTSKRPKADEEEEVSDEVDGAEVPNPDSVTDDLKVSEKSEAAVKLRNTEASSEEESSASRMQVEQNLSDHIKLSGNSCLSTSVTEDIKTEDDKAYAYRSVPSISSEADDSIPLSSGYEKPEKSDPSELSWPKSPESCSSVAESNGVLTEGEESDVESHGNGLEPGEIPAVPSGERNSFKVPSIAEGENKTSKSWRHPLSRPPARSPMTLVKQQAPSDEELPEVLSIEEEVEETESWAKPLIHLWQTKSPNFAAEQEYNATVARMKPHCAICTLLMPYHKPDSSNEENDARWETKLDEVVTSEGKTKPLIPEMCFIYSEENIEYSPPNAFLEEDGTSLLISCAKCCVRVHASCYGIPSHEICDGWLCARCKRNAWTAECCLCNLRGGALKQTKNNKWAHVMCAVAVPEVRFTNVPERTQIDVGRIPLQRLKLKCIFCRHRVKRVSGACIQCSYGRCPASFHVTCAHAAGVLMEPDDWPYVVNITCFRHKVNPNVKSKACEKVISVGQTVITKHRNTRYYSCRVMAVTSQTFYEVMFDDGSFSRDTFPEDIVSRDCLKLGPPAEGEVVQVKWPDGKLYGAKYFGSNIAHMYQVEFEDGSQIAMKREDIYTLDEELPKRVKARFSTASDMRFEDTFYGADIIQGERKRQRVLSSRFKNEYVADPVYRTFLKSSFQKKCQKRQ
Method: (§1) U2OS cells were seeded 24 hours before transfection. Transfection was performed with Fugene HD transfection reagent as recommended by the manufacturer. 6 hours after transfection, the cells were harvested and seeded into multi well plates into media containing compound. The media used was DMEM containing 5% FBS and pen/strep. 20 hours after incubation of cells with compounds, the cells were washed once in PBS, harvested by fixation with formaldehyde 4% aqueous solution, and washed 2 times in PBS. Subsequently, the cells were permeabilized in PBS with 0.2% Triton X-100 for 10 min at room temperature. Blocking was performed in PBS with 0.2% Triton X-100 and 5% FBS for 45 min at room temperature. The cells were incubated with primary antibodies diluted 1 μg/ml in blocking solution over night at 4° C. The primary antibodies used in the assays were HA.11 (Covance, MMS-101P) and the antibody detecting the mark specified in the Table 6 below. After incubation with primary antibodies, the cells were washed 3 times with PBS, incubated with secondary antibodies diluted 1:1000 (Alexa fluor 594 goat anti rabbit IgG, Invitrogen, A11012; Alexa flour 488 donkey anti mouse IgG, Invitrogen, A21202) and Hoechst, 20 μg/ml (Sigma, 33342) in blocking solution, and washed again 3 times with PBS. Finally, PBS was added and high throughput imaging and analysis were performed by an IN Cell Analyzer 1000 (GE Healthcare). The robot software analyzed individual cells and divided these into HA^+ (transfected cells) and HA^− (non-transfected cells). The IC50 values in Table 7 below were based on an average measure of the staining of the mark specified in the Table 6 below in the transfected cells.

[2] = target: T2, PLU1 (KDM5B) (Homo sapiens, UniProt Q9UGL1); assay: Immunofluorescence assay in U2OS cells transfected with pCMVHA PLU1 (H3K4me2 mark); type: cell-based; conditions: 20 hours
T2 construct: (1-752); host or cells: U2OS
T2 sequence (Q9UGL1 1-752): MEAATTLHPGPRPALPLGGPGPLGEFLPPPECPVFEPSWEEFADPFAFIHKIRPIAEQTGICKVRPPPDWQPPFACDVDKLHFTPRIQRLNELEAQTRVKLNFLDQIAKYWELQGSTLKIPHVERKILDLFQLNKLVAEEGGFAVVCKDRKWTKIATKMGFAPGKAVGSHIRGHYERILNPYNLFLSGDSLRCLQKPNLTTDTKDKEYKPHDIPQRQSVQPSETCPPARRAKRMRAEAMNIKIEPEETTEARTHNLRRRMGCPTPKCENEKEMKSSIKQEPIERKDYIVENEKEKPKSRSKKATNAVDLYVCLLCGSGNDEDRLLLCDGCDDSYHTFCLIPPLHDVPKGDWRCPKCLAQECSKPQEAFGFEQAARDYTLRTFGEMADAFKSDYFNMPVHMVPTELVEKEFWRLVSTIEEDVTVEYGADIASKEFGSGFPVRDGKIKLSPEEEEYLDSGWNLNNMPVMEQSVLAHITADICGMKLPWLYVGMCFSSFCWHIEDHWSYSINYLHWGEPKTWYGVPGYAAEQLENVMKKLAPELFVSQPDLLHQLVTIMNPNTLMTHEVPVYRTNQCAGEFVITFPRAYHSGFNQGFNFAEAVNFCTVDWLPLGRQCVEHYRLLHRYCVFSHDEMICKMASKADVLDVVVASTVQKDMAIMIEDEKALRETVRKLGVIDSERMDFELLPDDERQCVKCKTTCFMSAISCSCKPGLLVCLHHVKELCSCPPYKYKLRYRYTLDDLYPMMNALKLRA
Method: as §1

Compound	IC50 [1] [µM]	IC50 [2] [µM]
O=C(O)c1ccnc(CNCCCn2ccnc2)c1 [drawing 296, 2-({[3-(1H-imidazol-1-yl)propyl]amino}methyl) pyridine-4-carboxylic acid]	> 50	1 to 50
O=C(O)c1ccnc(CNC[C@@H](O)CO)c1 [drawing 298, 2-({[(2R)-2,3-dihydroxypropyl]amino}methyl)pyridine-4-carboxylic acid]	> 50	> 50
O=C(O)c1ccnc(CNCC2CC2)c1 [drawing 299, 2-{[(cyclopropylmethyl)amino]methyl}pyridine-4-carboxylic acid]	> 50	1 to 50
CN(C)CCN(C)Cc1cc(C(=O)O)ccn1 [drawing 301, 2-({[2-(dimethylamino)ethyl](methyl)amino}methyl)pyridine-4-carboxylic acid]	> 50	> 50
C#CCN(C)Cc1cc(C(=O)O)ccn1 [drawing 302, 2-{[methyl(prop-2-yn-1-yl)amino]methyl}pyridine-4-carboxylic acid]	> 50	> 50
Cn1c(CNCc2cc(C(=O)O)ccn2)nc2ccccc21 [drawing 307, 2-({[(1-methyl-1H-1,3-benzodiazol-2-yl)methyl)amino}methyl) pyridine-4-carboxylic acid]	> 50	1 to 50
COCCN1CCN(C(=O)CNCc2cc(C(=O)O)ccn2)CC1 [drawing 308, 2-[({2-[4-(2-methoxyethyl)piperazin-1-yl]-2-oxoethyl}amino)methyl] pyridine-4-carboxylic acid]	> 50	> 50
O=C(O)c1ccnc(CNCCCNCCCN2CCCC2)c1 [drawing 310, 2-{[(3-{[3-(pyrrolidin-1-yl)propyl]amino}propyl)amino]methyl}pyridine-4-carboxylic acid]	> 50	> 50
CCN1CCCC1CNC(=O)CNCc1cc(C(=O)O)ccn1 (centres unmarked) [drawing 313, 2-{[({[(1-ethylpyrrolidin-2-yl)methyl]carbamoyl}methyl)amino]methyl}pyridine-4-carboxylic acid]	> 50	1 to 50
CN(Cc1ccnn1C)C(=O)CNCc1cc(C(=O)O)ccn1 [drawing 314, 2-{[({methyl[(1-methyl-1H-pyrazol-5-yl)methyl]carbamoyl}methyl)amino]methyl}pyridine-4-carboxylic acid]	> 50	> 50
O=C(O)c1ccnc(CN[C@@H]2CCN(CCCc3ccccc3)C2)c1 [drawing 315, 2-({[(3R)-1-(3-phenylpropyl)pyrrolidin-3-yl]amino}methyl)pyridine-4-carboxylic acid]	> 50	1 to 50
O=C(CNCc1cc(C(=O)O)ccn1)NC1CCN(CCCc2ccccc2)CC1 [drawing 317, 2-{[({[1-(3-phenylpropyl)piperidin-4-yl]carbamoyl}methyl)amino]methyl}pyridine-4-carboxylic acid]	> 50	> 50
O=C(CNCc1cc(C(=O)O)ccn1)NC1CCN(Cc2ccco2)CC1 [drawing 318, 2-{[({[1-(furan-2-ylmethyl)piperidin-4-yl]carbamoyl}methyl)amino]methyl}pyridine-4-carboxylic acid]	> 50	> 50
O=C(CNCc1cc(C(=O)O)ccn1)NC1CCN(Cc2ccc(-c3ccccc3)o2)CC1 [drawing 319, 2-({[({1-[(5-phenylfuran-2-yl)methyl]piperidin-4-yl}carbamoyl)methyl]amino}methyl)pyridine-4-carboxylic acid]	> 50	> 50
CN(CCCNCc1cc(C(=O)O)ccn1)Cc1ccccc1F [drawing 322, 2-{[(3-{[(2-fluorophenyl)methyl](methyl)amino}propyl)amino]methyl}pyridine-4-carboxylic acid]	> 50	1 to 50

Results, then the molecule that gave them:

IC50 [1] [µM]	IC50 [2] [µM]	Compound
1 to 50	1 to 50	CN(C)CCNCc1cc(C(=O)O)ccn1 [drawing 297, 2-({[2-(dimethylamino)ethyl]amino}methyl)pyridine-4-carboxylic acid]
1 to 50	> 50	O=C(O)c1ccnc(CNCC(=O)N2CCCC2)c1 [drawing 305, 2-({[2-oxo-2-(pyrrolidin-1-yl)ethyl]amino}methyl) pyridine-4-carboxylic acid]
1 to 50	> 50	CCCCN(C)C(=O)CNCc1cc(C(=O)O)ccn1 [drawing 306, 2-[({[butyl(methyl)carbamoyl]methyl}amino)methyl] pyridine-4-carboxylic acid]
1 to 50	1 to 50	C=CCN(CC=C)C(=O)CNCc1cc(C(=O)O)ccn1 [drawing 309, 2-[({[bis(prop-2-en-1-yl)carbamoyl]methyl}amino)methyl]pyridine-4-carboxylic acid]
1 to 50	1 to 50	CN(CCCc1nccn1C)C(=O)CNCc1cc(C(=O)O)ccn1 [drawing 312, 2-{[({methyl[3-(1-methyl-1H-imidazol-2-yl)propyl]carbamoyl}methyl)amino]methyl}pyridine-4-carboxylic acid]
1 to 50	1 to 50	O=C(O)c1ccnc(CNCCCN2CCCC2)c1 [drawing 325, 2-({[3-(pyrrolidin-1-yl)propyl]amino}methyl)pyridine-4-carboxylic acid]
1 to 50	1 to 50	COC(=O)c1ccnc(CNCCCN2CCCC2)c1 [drawing 326, methyl 2-({[3-(pyrrolidin-1-yl)propyl]amino}methyl) pyridine-4-carboxylate]
1 to 50	1 to 50	CCN(CC)CCCCNCc1cc(C(=O)O)ccn1 [drawing 327, 2-({[4-(diethylamino)butyl]amino}methyl)pyridine-4-carboxylic acid]
1 to 50	< 1	CCN(CC)CCCCNCc1cc(C(=O)Oc2ccc(OC)cc2)ccn1 [drawing 329, 4-methoxyphenyl 2-({[4-(diethylamino)butyl]amino}methyl)pyridine-4-carboxylate]
1 to 50	< 1	CCOC(=O)c1ccccc1OC(=O)c1ccnc(CNCCCCN(CC)CC)c1 [drawing 330, 2-(ethoxycarbonyl) phenyl 2-({[4-(diethylamino)butyl]amino}methyl)pyridine-4-carboxylate]
